Measured values: patent US11319376B2, “Combination of glucagon receptor antagonists and PI3K pathway inhibitors for the treatment of cancer” (REMD Biotherapeutics, Inc., priority 2016, dated 2022)

Experiments:
[1] = tested on: cancer patient of diverse malignancies; details: cancer patients; cited from earlier work
[2] = tested on: C57BL/6 mice; test: Effect of REMD2.59c pretreatment on induction of hyperglycemia by PI3K/Akt pathway inhibitors in C57BL/6 fed mice; format: in vivo, mouse; details: fed blood glucose, −24 h pretreatment ASN vehicle or REMD2.59c 7 mg/kg i.p., mean ± sd, n=3; for 2 h Glucose: 2 h after single p.o. dose (BYL719 50, BKM120 50, GDC-0980 10, MK2206 150, GSK690693 30, GDC-0068 10 or 100, OSI-906 100 mg/kg); for 4 h Glucose: 4 h after single p.o. dose (same doses as 2 h)
[3] = target: CSF1R (Homo sapiens, UniProt P07333); details: read-out: Target Selectivity (IC50) CSF1R; cited from earlier work
[4] = target: ATR (Homo sapiens, UniProt Q13535); details: read-out: Target Selectivity (IC50) ATR; cited from earlier work
Chain of ATR (Q13535 whole entry): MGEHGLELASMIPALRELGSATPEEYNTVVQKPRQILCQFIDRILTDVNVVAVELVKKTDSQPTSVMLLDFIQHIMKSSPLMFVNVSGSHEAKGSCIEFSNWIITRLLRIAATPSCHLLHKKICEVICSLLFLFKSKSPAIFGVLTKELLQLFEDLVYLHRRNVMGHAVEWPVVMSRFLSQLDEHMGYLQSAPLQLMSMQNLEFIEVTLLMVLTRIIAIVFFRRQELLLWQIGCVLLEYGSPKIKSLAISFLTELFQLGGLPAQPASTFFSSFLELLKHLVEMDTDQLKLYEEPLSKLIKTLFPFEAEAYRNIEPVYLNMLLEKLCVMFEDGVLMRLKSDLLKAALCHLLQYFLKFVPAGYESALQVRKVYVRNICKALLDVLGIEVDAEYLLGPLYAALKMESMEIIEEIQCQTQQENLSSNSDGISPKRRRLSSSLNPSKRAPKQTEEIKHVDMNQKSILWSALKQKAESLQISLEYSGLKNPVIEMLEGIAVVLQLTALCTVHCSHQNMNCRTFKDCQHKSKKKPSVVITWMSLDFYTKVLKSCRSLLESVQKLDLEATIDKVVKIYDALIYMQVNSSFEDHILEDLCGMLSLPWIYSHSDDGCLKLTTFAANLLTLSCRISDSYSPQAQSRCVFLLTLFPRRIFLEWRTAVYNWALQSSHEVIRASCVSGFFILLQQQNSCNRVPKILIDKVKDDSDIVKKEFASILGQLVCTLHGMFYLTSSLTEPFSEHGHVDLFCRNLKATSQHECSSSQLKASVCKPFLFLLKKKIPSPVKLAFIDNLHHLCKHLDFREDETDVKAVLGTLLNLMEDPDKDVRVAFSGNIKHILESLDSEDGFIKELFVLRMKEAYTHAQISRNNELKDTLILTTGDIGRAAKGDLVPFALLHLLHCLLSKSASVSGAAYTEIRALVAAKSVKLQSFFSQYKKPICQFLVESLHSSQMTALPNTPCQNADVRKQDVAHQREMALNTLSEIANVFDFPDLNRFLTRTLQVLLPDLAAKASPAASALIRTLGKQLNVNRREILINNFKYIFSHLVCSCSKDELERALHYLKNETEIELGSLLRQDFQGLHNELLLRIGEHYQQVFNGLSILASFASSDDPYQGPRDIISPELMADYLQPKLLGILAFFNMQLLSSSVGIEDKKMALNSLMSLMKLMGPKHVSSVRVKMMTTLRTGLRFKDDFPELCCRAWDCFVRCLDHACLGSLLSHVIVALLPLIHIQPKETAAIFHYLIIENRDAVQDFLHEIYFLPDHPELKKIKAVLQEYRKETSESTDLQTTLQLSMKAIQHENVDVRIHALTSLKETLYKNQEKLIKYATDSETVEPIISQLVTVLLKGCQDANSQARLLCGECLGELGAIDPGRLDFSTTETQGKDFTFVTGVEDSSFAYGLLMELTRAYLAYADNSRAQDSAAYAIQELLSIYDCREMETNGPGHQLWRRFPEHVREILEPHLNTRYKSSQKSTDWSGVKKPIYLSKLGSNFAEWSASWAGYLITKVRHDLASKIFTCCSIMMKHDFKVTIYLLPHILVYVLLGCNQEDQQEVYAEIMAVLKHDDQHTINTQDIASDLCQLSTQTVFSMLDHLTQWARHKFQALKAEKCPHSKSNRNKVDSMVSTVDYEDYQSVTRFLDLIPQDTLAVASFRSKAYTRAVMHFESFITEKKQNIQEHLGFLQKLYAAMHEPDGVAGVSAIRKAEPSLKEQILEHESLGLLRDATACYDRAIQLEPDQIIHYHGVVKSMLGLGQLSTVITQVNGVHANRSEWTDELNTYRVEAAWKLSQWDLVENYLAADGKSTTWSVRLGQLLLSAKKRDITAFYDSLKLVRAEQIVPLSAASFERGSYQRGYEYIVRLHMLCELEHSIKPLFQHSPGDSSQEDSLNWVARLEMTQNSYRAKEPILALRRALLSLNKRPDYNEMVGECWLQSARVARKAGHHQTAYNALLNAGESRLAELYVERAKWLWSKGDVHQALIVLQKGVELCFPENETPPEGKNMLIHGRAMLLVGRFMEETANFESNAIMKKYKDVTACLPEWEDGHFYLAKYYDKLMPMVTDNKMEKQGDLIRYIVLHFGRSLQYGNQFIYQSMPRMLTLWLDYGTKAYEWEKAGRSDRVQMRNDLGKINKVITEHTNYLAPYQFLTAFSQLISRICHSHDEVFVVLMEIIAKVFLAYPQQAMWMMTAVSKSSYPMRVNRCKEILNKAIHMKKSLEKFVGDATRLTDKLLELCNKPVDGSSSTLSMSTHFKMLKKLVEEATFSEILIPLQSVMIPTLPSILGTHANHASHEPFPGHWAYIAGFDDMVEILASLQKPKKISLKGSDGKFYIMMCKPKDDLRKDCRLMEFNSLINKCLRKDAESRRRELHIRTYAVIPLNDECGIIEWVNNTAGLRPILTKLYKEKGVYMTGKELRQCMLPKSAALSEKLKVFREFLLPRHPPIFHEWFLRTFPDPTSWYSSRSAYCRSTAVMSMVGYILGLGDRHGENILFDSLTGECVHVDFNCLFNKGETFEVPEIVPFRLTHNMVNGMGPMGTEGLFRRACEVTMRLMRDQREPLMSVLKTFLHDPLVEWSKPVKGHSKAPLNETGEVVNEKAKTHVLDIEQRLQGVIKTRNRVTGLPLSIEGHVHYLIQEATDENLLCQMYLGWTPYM
Chain of ATR (Q8WXE1 whole entry partner): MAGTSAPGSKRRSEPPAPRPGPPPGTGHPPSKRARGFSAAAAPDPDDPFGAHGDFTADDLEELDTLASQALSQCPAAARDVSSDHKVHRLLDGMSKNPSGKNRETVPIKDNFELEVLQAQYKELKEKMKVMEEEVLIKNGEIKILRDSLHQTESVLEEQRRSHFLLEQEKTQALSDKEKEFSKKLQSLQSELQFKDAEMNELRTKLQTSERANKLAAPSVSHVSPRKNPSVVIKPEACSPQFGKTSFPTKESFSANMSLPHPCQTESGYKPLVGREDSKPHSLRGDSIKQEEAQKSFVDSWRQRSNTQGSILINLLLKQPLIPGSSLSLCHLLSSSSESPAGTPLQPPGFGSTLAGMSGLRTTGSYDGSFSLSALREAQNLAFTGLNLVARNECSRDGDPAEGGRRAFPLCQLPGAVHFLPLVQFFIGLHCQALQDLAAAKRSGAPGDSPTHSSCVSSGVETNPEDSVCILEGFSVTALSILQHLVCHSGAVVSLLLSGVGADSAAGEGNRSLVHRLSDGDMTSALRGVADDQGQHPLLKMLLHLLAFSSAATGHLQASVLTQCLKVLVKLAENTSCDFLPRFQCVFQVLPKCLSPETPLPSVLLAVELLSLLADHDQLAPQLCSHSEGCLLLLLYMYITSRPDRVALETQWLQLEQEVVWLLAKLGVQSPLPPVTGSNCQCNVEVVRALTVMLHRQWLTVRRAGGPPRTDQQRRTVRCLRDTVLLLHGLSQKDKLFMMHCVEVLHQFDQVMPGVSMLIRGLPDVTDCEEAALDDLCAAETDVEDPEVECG

[5] = target: VPS34 (Homo sapiens, UniProt Q8NEB9); details: read-out: Target Selectivity (IC50) VPS34; cited from earlier work
Chain of VPS34 (Q8NEB9 whole entry): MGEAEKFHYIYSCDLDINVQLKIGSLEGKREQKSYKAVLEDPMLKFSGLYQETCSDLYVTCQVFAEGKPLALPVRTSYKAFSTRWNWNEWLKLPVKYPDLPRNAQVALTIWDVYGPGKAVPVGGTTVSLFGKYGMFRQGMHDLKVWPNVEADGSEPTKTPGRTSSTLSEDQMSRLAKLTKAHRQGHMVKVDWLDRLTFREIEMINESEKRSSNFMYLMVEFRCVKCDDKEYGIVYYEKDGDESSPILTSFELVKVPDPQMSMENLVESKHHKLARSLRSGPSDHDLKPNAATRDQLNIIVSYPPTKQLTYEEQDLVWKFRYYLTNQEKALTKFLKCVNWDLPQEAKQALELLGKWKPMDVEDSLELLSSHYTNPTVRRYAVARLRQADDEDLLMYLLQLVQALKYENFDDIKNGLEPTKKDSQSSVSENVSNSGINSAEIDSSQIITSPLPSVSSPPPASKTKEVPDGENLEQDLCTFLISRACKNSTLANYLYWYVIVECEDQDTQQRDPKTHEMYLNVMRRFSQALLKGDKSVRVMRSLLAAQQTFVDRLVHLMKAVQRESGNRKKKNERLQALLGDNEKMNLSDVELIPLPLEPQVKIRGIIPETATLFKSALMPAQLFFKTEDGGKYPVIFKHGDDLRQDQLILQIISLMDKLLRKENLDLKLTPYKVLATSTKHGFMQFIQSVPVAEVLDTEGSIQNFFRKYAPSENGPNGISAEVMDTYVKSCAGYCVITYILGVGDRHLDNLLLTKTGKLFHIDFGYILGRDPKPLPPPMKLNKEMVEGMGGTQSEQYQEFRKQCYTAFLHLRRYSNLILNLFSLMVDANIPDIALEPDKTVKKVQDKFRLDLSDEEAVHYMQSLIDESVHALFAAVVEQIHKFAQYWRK

[6] = target: PI4Kβ (Homo sapiens, UniProt Q9UBF8); details: read-out: Target Selectivity (IC50) PI4Kβ; cited from earlier work
Chain of PI4Kβ (Q9UBF8 whole entry, species assumed): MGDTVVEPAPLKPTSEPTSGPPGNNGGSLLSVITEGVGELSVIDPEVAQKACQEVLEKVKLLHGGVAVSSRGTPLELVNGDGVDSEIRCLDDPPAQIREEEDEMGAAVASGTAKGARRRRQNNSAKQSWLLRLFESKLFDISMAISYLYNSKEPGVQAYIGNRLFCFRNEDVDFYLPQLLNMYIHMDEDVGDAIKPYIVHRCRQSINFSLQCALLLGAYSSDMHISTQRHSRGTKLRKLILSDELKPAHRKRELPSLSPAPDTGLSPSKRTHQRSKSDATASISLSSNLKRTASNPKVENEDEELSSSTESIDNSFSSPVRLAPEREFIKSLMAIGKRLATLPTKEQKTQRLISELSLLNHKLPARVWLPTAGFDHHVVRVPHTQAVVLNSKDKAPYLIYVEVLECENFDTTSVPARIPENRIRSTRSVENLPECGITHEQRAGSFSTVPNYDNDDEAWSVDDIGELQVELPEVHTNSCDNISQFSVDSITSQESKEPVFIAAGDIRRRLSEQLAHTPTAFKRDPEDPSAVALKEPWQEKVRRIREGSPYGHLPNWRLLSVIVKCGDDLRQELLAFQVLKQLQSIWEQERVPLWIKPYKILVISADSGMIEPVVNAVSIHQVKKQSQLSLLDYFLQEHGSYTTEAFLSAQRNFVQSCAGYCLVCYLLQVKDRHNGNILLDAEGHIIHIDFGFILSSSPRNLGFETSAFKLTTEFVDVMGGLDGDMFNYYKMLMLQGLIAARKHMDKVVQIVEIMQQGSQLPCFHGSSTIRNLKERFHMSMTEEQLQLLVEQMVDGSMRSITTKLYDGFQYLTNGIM

[7] = target: DNAPK (Homo sapiens, UniProt P78527); details: read-out: Target Selectivity (IC50) DNAPK; cited from earlier work
[8] = target: mTOR (Homo sapiens, UniProt P42345); details: read-out: Target Selectivity (IC50) mTOR; cited from earlier work
[9] = target: p70S6K (Homo sapiens, UniProt P23443); details: read-out: Target Selectivity (IC50) p70S6K; cited from earlier work
[10] = tested on: CD-17 scid mice; details: cited from earlier work; for effect on GSK690693-induced hyperglycemia: CD-17 scid mice
[11] = tested on: BALB/c athymic nude mice; test: Glucose and insulin response to MK2206 with/without REMD2.59c pretreatment in BALB/c athymic nude mice (MiaPaCa2 tumor bearing or naive); format: in vivo, mouse; details: for −0.5 h Glucose: 0.5 h before MK2206 dosing
[12] = tested on: patients with type 1 diabetes; details: single dose 70 mg subcutaneous; cited from earlier work

**Q.** For `Nc1cc(C(F)(F)F)c(-c2cc(N3CCOCC3)nc(N3CCOCC3)n2)cn1` [BKM120, buparlisib], which “efficacy in Phase I/II clinical trials” value [1] is on record?
**A.** minimal

**Q.** What about the “hyperglycemia and hyperinsulinemia in Phase I/II clinical trials” value [1] of the same molecule?
**A.** consistently observed

**Q.** And the “2 h Glucose” value [2]?
**A.** 15.7 ± 2.5 mM

**Q.** What about the “4 h Glucose” value [2] of the same molecule?
**A.** 9.1 ± 1.3 mM

**Q.** What about the IC50 [3] of the same molecule?
**A.** 0.582 µM

**Q.** And the IC50 [4]?
**A.** 8.09 µM

**Q.** With `Cc1nc(NC(=O)N2CCC[C@H]2C(N)=O)sc1-c1ccnc(C(C)(C)C(F)(F)F)c1` [BYL719, alpelisib] as the molecule, how does the IC50 [5] read?
**A.** 9.1 µM

**Q.** What about the “efficacy in Phase I/II clinical trials” value [1] of the same molecule?
**A.** minimal

**Q.** And the “hyperglycemia and hyperinsulinemia in Phase I/II clinical trials” value [1]?
**A.** consistently observed

**Q.** What about the IC50 [6] of the same molecule?
**A.** 0.581 µM

**Q.** And the “2 h Glucose” value [2]?
**A.** 17.4 ± 1.4 mM

**Q.** What about the “4 h Glucose” value [2] of the same molecule?
**A.** 11.9 ± 3.3 mM

**Q.** And the IC50 [7]?
**A.** 9.1 µM

**Q.** What about the IC50 [4] of the same molecule?
**A.** 15 µM

**Q.** What about the IC50 [8] of the same molecule?
**A.** 9.1 µM

**Q.** Which IC50 [9] does the source give for `CC(C)NC[C@@H](C(=O)N1CCN(c2ncnc3c2[C@H](C)C[C@H]3O)CC1)c1ccc(Cl)cc1` [GDC-0068, ipatasertib] here?
**A.** 0.862 µM

**Q.** And the “2 h Glucose” value [2]?
**A.** 28.4 ± 2.0 mM

**Q.** What about the “4 h Glucose” value [2] of the same molecule?
**A.** 25.9 ± 1.2 mM

**Q.** With `Cc1c(CN2CCN(C(=O)[C@H](C)O)CC2)sc2c(N3CCOCC3)nc(-c3cnc(N)nc3)nc12` [GDC-0980, apitolisib] as the molecule, how does the “2 h Glucose” value [2] read?
**A.** 27.0 ± 1.8 mM

**Q.** And the “4 h Glucose” value [2]?
**A.** 20.5 ± 0.9 mM

**Q.** For `CCn1c(-c2nonc2N)nc2c(C#CC(C)(C)O)ncc(OC[C@H]3CCCNC3)c21` [GSK690693], which “2 h Glucose” value [2] is on record?
**A.** 27.1 ± 2.6 mM

**Q.** And the “4 h Glucose” value [2]?
**A.** 21.2 ± 1.5 mM

**Q.** And the induction of hyperglycemia ([10]; mouse, in vivo)?
**A.** potently induces

**Q.** Which results are given for `NC1(c2ccc(-c3nc4ccn5c(=O)[nH]nc5c4cc3-c3ccccc3)cc2)CCC1` [MK2206]?
**A.** efficacy in Phase I/II clinical trials [1]: minimal; hyperglycemia and hyperinsulinemia in Phase I/II clinical trials [1]: consistently observed; glucose levels after 2 h treatment ([11]; BALB/c nude mice, MK2206 150 mg/kg p.o.): not increased; increase in serum insulin after 2 h treatment ([11]; BALB/c nude tumor bearing mice, MK2206 150 mg/kg p.o., statistically significant): 65.5 fold; 4 h Insulin ([11]; Table 4 (glucose table), MiaPaCa2 tumor bearing BALB/c nude mice, 4 h after MK2206 150 mg/kg p.o.): 4.9 ± 0.8 ng/mL; 4 h Insulin ([11]; Table 4 (glucose table), naive (tumor-free) BALB/c nude mice, 4 h after MK2206 150 mg/kg): 5.7 ± 1.0 ng/mL; −0.5 h Glucose ([11]; Table 4, MiaPaCa2 tumor bearing BALB/c nude mice, 24 h after ASN or REMD2.59c, mean ± sd, n=3): 5.6 ± 0.8 mM; 2 h Glucose ([11]; Table 4, MiaPaCa2 tumor bearing BALB/c nude mice, 2 h after MK2206 150 mg/kg p.o.): 5.5 ± 1.0 mM; −0.5 h Glucose ([11]; Table 4, naive (tumor-free) BALB/c nude mice, no pretreatment): 5.7 ± 0.9 mM; 2 h Glucose ([11]; Table 4, naive (tumor-free) BALB/c nude mice, 2 h after MK2206 150 mg/kg): 5.8 ± 0.5 mM; 2 h Glucose ([11]; Table 5 (insulin table), MiaPaCa2 tumor bearing BALB/c nude mice, 2 h after MK2206 150 mg/kg p.o.): 26.2 ± 19.4 mM; 4 h Insulin ([11]; Table 5, MiaPaCa2 tumor bearing BALB/c nude mice, 4 h after MK2206 150 mg/kg p.o.): 7.1 ± 2.1 ng/mL; 2 h Glucose [2]: 20.1 ± 0.8 mM; 4 h Glucose [2]: 9.6 ± 1.3 mM

**Q.** What does the source list for `C[C@]1(O)C[C@@H](c2nc(-c3ccc4ccc(-c5ccccc5)nc4c3)c3c(N)nccn32)C1` [OSI-906, linsitinib]?
**A.** 2 h Glucose [2]: 29.3 ± 1.7 mM; 4 h Glucose [2]: 23.4 ± 1.5 mM

**Q.** Which “effect on GSK690693-induced hyperglycemia” value (shortened to “effect”) [10] does the source give for `CN(C)C(=N)N=C(N)N` [metformin] here?
**A.** not prevented or reduce

**Q.** Which “effect” value [10] does the source give for `N#C[C@@H]1CCCN1C(=O)CNC12CC3CC(CC(O)(C3)C1)C2` [vildagliptin] here?
**A.** not prevented or reduce

**Q.** For Exendin-4, which “effect” value [10] is on record?
**A.** not prevented or reduce

**Q.** What does the source list for “REMD-477: fully human anti-GCGR monoclonal antibody, heavy chain SEQ ID NO: 49 and light chain SEQ ID NO: 50”?
**A.** amount of insulin needed [12]: substantially reduce; glucose levels [12]: improve; hypoglycemia (low blood glucose levels) [12]: without increasing
